The data set in a line: Solubility in toluene. It is filed as physicochemical. As to conditions: 20 mg mixed with toluene (1 mL). The text has this: B: Incompletely dissolved.
[1] abbreviates: organic solvent or mixture, thermodynamic from solid, read-out: Solubility.

Like-named read-outs stand apart in the source and are kept apart here.

Turning to `CCCCCCCCc1cc2c(ccc3c2sc2c4ccc5sccc5c4sc32)s1` [Compound 44], the Solubility (in general, the dissolved amount per volume that the medium holds) is on record as “A (Completely dissolved.)”. Turning to `CCCCCCCCOc1cc2ccc3c(sc4c5ccc6cc(OCCCCCCCC)sc6c5sc34)c2s1` [Compound 37], the Solubility result is on record as “A (Completely dissolved.)”. The same measure, in the same setting: next, `CCCCCCCCCCCCCCc1cc2sccc2c2sc3c(sc4c5ccsc5cc(CCCCCCCCCCCCCC)c43)c12` [Compound 40]: “A (Completely dissolved.)”; `CCCCCCCCC#Cc1cc2ccc3c(sc4c5ccc6cc(C#CCCCCCCCC)sc6c5sc34)c2s1` [Compound 29]: “A (Completely dissolved.)”; `CCCCCCCCc1cc2ccc3c(sc4c5ccc6cc(CCCCCCCC)sc6c5sc34)c2s1` [Compound 1]: “A (Completely dissolved.)”. As for `CCCCCCCCCCCCc1cc2c(ccc3c2sc2c4ccc5sc(CCCCCCCCCCCC)cc5c4sc32)s1` [Compound 4], the Solubility result is on record as “A (Completely dissolved.)”. On to `c1cc2cc3sc4c5cc6sccc6cc5sc4c3cc2s1` [compound 4, reference compound], for which the Solubility under setting [1] is less than 20 mg/mL. With `CC(C)CCCC(C)CCc1cc2ccc3c(sc4c5ccc6cc(CCC(C)CCCC(C)C)sc6c5sc34)c2s1` (centres unmarked) [Compound 5], the Solubility under setting [1] is greater than 20 mg/mL.

As for `CCCC(C)n1ccc2c3sc4c5ccc6c(ccn6C(C)CCC)c5sc4c3ccc21` (centres unmarked) [compound 3, reference compound], under setting [1], the Solubility was less than 20 mg/mL. In the case of `CCCCCCCCc1cc2ccc3c(sc4c5ccc6ccsc6c5sc34)c2s1` [Compound 43], the Solubility result is “A (Completely dissolved.)”.

For the molecule `CCCCCCCCCCCCc1cc2ccc3c(sc4c5ccc6cc(CCCCCCCCCCCC)sc6c5sc34)c2s1` [Compound 3], the Solubility result is given as “A (Completely dissolved.)”. As for `CCCCCCCCC#Cc1cc2c(ccc3c2sc2c4ccc5sc(C#CCCCCCCCC)cc5c4sc32)s1` [Compound 30], the Solubility entry is “A (Completely dissolved.)”. In the case of `Cn1ccc2c3sc4c5ccc6c(ccn6C)c5sc4c3ccc21` [compound 1, reference compound], the Solubility under setting [1] is less than 20 mg/mL.

As for `CCCCCCCCCCCCCCc1cc2ccsc2c2sc3c(sc4c5sccc5cc(CCCCCCCCCCCCCC)c43)c12` [Compound 39], the Solubility entry is given as “A (Completely dissolved.)”.

In the case of `CCCCCCCCOc1cc2c(ccc3c2sc2c4ccc5sc(OCCCCCCCC)cc5c4sc32)s1` [Compound 38], the Solubility entry is listed as “A (Completely dissolved.)”. The same measure, in the same setting: with `CCCCCCCCc1cc2c(ccc3c2sc2c4ccc5sc(CCCCCCCC)cc5c4sc32)s1` [Compound 2] the entry was “A (Completely dissolved.)”. `CCc1cc2cc3c(cc2s1)sc1c2cc4cc(CC)sc4cc2sc31` [compound 2, reference compound]: the Solubility under setting [1] was less than 20 mg/mL.
